Results reported in patent publication US8946218B2, “CCR2 receptor antagonists, method for producing the same, and use thereof as medicaments” (Boehringer Ingelheim International GmbH, priority 2010, dated 2015).

Target: T1, CCR2 (Homo sapiens, UniProt P41597)
T1 construct: Membranes were prepared from THP-1 cells; endogenous in cells; host or cells: THP-1 (human acute monocytic leukaemia cells), membrane preparation
Test: Receptor membrane binding assay: [125I]MCP-1 binding to CCR2 on THP-1 cell membranes (SPA beads)
Conditions: THP-1 membranes, [125I]MCP-1, bound radioactivity after 8 h; read-out: hKi
Description: The above exemplary substances have been tested for binding to CCR2 using a binding assay as outlined herein below:
THP-1 cells (human acute monocytic leukaemia cells) were cultured under standardized conditions at 37° C. and 5% CO2 in a humidified incubator. THP-1 cells were cultivated in RPMI 1640 medium (Gibco 21875) containing 1% MEM-NEAA (Gibso 11140) 2 mM L-glutamine, 1.5 g/L sodium bicarbonate, 4.5 g/L glucose, 10 mM HEPES and 1.0 mM sodium pyruvate, 90%; 10% fetal calf serum (FCS Gibco 10500-064).
Membranes were prepared from THP-1 cells. THP-1 cells were centrifuged at 300×g at 4° C. for 10 min. The cell pellet was resuspended in Phosphate Buffer Saline (PBS, including 10 μM Pefabloc and a protease inhibitor mix ‘complete’, Boehringer Mannheim (1 tablet/50 ml)), to a concentration of […]. The membrane preparation was performed by disrupting the cells by nitrogen […] (at 50 bar, for 1 h) in a “Nitrogen Bombe” (Parr Instrument). Cell debris was removed by centrifugation (800×g at 4° C., 1 min). The supernatant was centrifuged at 80000×g, 4° C. for 30 min to sediment the cell membranes. Usually 50 mg of protein (Bradford assay) were yielded from 1×10E9 cells. The membranes were resuspended in 25 mM HEPES, 25 mM MgCl2, 1 mM CaCl2, 10% Glycerine for storage in aliquots at −80° C. in 25 mM HEPES, 25 mM MgCl2, 1 mM CaCl2, 10% Glycerine and stored at −80° C.
Receptor Membrane Binding Assay:
Perkin Elmer NEX 332 Jod 125 MCP-1, Stock: 2200 Ci/mmol solved in 2000 μl assay buffer, stored at −20° C. THP-1 membrane were adjusted with 25 mM HEPES, pH 7.2; 5 mM MgCl2; 0.5 mM CaCl2; 0.2% BSA assay buffer to a concentration of 2.5 μg/15 μl. Amersham Biosciences PVT-WGA Beads (RPNQ0001) were adjusted with assay buffer to a concentration of 0.24 mg/30 μl. For preparation of the membrane-bead-suspension membranes and beads were incubated for 30 min at RT under rotation (60 rpm) with a ratio of 1:2. Test compounds dissolved in 100% DMSO to a concentration of 10 mM and are further diluted with 100% DMSO to 1 mM. All additional compound dilutions were obtained with assay buffer, final 1% DMSO. Compounds, membrane-bead-suspension and [125I]MCP-1 (ca. 25000 cpm/10 μl) were incubated. Bound radioactivity was determined by scintillation counter after 8 h. Determination of affinity of test compounds (dissociation constant hKi) is calculated by iterative fitting of experimental data using the “easy sys” program, which is based on law of mass action (Schittkowski K. (1994), Numerische Mathematik, Vol. 68, 129-142).

T1 sequence (P41597 whole entry): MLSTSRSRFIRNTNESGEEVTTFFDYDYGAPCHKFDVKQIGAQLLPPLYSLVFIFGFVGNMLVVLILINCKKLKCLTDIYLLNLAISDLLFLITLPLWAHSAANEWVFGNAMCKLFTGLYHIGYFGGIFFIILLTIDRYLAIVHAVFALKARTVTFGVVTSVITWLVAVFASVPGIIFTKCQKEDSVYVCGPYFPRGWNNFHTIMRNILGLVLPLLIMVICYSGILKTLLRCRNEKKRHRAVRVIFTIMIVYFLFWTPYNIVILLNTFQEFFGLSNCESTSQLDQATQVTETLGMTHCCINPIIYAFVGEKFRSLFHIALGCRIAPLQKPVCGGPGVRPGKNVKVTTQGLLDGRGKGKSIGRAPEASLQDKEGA

Ki | Compound
16 nM | COC1COCCC1NC1CCN(C(=O)c2ncnc(Nc3cccc(C(F)(F)F)c3)c2C)CC1 (centres unmarked) [Example 1]
121 nM | COC1COCCC1NC1CCN(C(=O)c2ncnc(Nc3cc(C(F)(F)F)cc(C(F)(F)F)c3)c2C)CC1 (centres unmarked) [Example 2]
450 nM | COC1COCCC1NC1CCN(C(=O)c2ncnc(Nc3ccccc3)c2C)CC1 (centres unmarked) [Example 3]
110 nM | COC1COCCC1NC1CCN(C(=O)c2ncnc(Nc3cccc(C(F)(F)F)n3)c2C)CC1 (centres unmarked) [Example 4]
232 nM | COC1COCCC1NC1CCN(C(=O)c2ncnc(Nc3cccc(C)c3)c2C)CC1 (centres unmarked) [Example 5]
280 nM | CO[C@H]1COCC[C@H]1NC1CCN(C(=O)c2cc(Nc3cccc(C(F)(F)F)c3)ncn2)CC1 [Example 6]
138 nM | CO[C@@H]1COCC[C@@H]1NC1CCN(C(=O)c2cc(Nc3cccc(C(F)(F)F)c3)ncn2)CC1 [Example 7]
398 nM | CN(C1CCN(C2CCN(C(=O)c3cc(Nc4cccc(C(F)(F)F)c4)ncn3)CC2)CC1)S(C)(=O)=O [Example 8]
2 nM | COC1COCCC1NC1CCN(C(=O)c2ncnc(Nc3ccc(Cl)c(Cl)c3)c2C)CC1 (centres unmarked) [Example 9]
481 nM | COC1COCCC1NC1CCN(C(=O)c2ncnc(N(C)c3cccc(C(F)(F)F)c3)c2C)CC1 (centres unmarked) [Example 10]
15 nM | COC1COCCC1NC1CCN(C(=O)c2ncnc(Nc3cccc(OC(F)(F)F)c3)c2C)CC1 (centres unmarked) [Example 11]
728 nM | COC1COCCC1NC1CCN(C(=O)c2ncnc(Nc3cc(Cl)ccc3C)c2C)CC1 (centres unmarked) [Example 12]
2990 nM | COC1COCCC1NC1CCN(C(=O)c2ncnc(Nc3cccc(Cl)c3C)c2C)CC1 (centres unmarked) [Example 13]
146 nM | COC1COCCC1NC1CCN(C(=O)c2ncnc(Nc3cccc(F)c3)c2C)CC1 (centres unmarked) [Example 14]
30 nM | COC1COCCC1NC1CCN(C(=O)c2ncnc(Nc3ccc(Br)cc3)c2C)CC1 (centres unmarked) [Example 15]
707 nM | COC1COCCC1NC1CCN(C(=O)c2ncnc(Nc3cccc(-c4ccncc4)c3)c2C)CC1 (centres unmarked) [Example 16]
5180 nM | COC1COCCC1NC1CCN(C(=O)c2ncnc(Nc3ccccc3Cl)c2C)CC1 (centres unmarked) [Example 17]
1 nM | CO[C@@H]1COCC[C@@H]1NC1CCN(C(=O)c2ncnc(Nc3ccc(Cl)c(Cl)c3)c2C)CC1 [Example 17a]
5 nM | CO[C@H]1COCC[C@H]1NC1CCN(C(=O)c2ncnc(Nc3ccc(Cl)c(Cl)c3)c2C)CC1 [Example 17b]
6 nM | CO[C@@H]1COCC[C@@H]1NC1CCN(C(=O)c2ncnc(Nc3cccc(C(F)(F)F)c3)c2C)CC1 [Example 18]
49 nM | COc1c(Nc2cccc(C(F)(F)F)c2)ncnc1C(=O)N1CCC(N[C@@H]2CCOC[C@@H]2OC)CC1 [Example 19]
26 nM | COc1c(Nc2cccc(C(F)(F)F)c2)ncnc1C(=O)N1CCC(N[C@H]2CCOC[C@H]2OC)CC1 [Example 20]
23 nM | COc1c(Nc2cccc(C(F)(F)F)c2)ncnc1C(=O)N1CCC(N2CCC(N(C)S(C)(=O)=O)CC2)CC1 [Example 21]
14 nM | Cc1c(Nc2ccc3ccccc3c2)ncnc1C(=O)N1CCC(N2CCC(N(C)S(C)(=O)=O)CC2)CC1 [Example 22]
17 nM | COC1COCCC1NC1CCN(C(=O)c2ncnc(Nc3ccc4ccccc4c3)c2C)CC1 (centres unmarked) [Example 23]
854 nM | Cc1c(Nc2cc3ccccc3c(C)n2)ncnc1C(=O)N1CCC(N2CCC(N(C)S(C)(=O)=O)CC2)CC1 [Example 24]
165 nM | CO[C@@H]1COCC[C@@H]1NC1CCN(C(=O)c2ccnc(Nc3cccc(C(F)(F)F)c3)c2C)CC1 [Example 25]

Ki | Compound
46 nM | CO[C@H]1COCC[C@H]1NC1CCN(C(=O)c2ccnc(Nc3cccc(C(F)(F)F)c3)c2C)CC1 [Example 26]
5 nM | CO[C@@H]1COCC[C@@H]1NC1CCN(C(=O)c2nccc(Nc3cccc(C(F)(F)F)c3)c2C)CC1 [Example 27]
10 nM | CO[C@H]1COCC[C@H]1NC1CCN(C(=O)c2nccc(Nc3cccc(C(F)(F)F)c3)c2C)CC1 [Example 28]
53 nM | Cc1c(Nc2cccc(C(F)(F)F)c2)ncnc1C(=O)N1CCC(N2CCOCC2)CC1 [Example 29]
1480 nM | CO[C@@H]1COCC[C@@H]1NC1CCN(C(=O)c2ncnc(Nc3ccc(Cl)c(C(F)(F)F)c3)c2C)CC1 [Example 30]
5310 nM | CO[C@H]1COCC[C@H]1NC1CCN(C(=O)c2ncnc(Nc3ccc(Cl)c(C(F)(F)F)c3)c2C)CC1 [Example 31]
64 nM | CO[C@@H]1COCC[C@@H]1NC1CCN(C(=O)c2cc(Nc3cccc(C(F)(F)F)c3)nc(C(F)(F)F)n2)CC1 [Example 32]
36 nM | CO[C@H]1COCC[C@H]1NC1CCN(C(=O)c2cc(Nc3cccc(C(F)(F)F)c3)nc(C(F)(F)F)n2)CC1 [Example 33]
0.5 nM | COc1nc(Nc2ccc(Cl)c(Cl)c2)c(C)c(C(=O)N2CCC(N[C@H]3CCOC[C@H]3OC)CC2)n1 [Example 33a]
0.7 nM | COc1nc(Nc2ccc(Cl)c(Cl)c2)c(C)c(C(=O)N2CCC(N[C@@H]3CCOC[C@@H]3OC)CC2)n1 [Example 33b]
0.2 nM | CO[C@@H]1COCC[C@@H]1NC1CCN(C(=O)c2nc(C(F)(F)F)nc(Nc3ccc(Cl)c(Cl)c3)c2C)CC1 [Example 33c]
0.3 nM | CO[C@H]1COCC[C@H]1NC1CCN(C(=O)c2nc(C(F)(F)F)nc(Nc3ccc(Cl)c(Cl)c3)c2C)CC1 [Example 33d]
23 nM | Cc1c(Nc2ccc(Cl)c(Cl)c2)ncnc1C(=O)N1CCC(N[C@H]2CCOC[C@H]2F)CC1 [Example 33e]
8 nM | Cc1c(Nc2ccc(Cl)c(Cl)c2)ncnc1C(=O)N1CCC(N[C@@H]2CCOC[C@@H]2F)CC1 [Example 33g]
2 nM | COc1nc(Nc2ccc(Cl)c(Cl)c2)c(C)c(C(=O)N2CCC(NC3CCOCC3F)CC2)n1 (centres unmarked) [Example 33h]
3 nM | COc1nc(Nc2cccc(C(F)(F)F)c2)c(C)c(C(=O)N2CCC(N[C@@H]3CCOC[C@@H]3OC)CC2)n1 [Example 33i]
1 nM | COc1nc(Nc2cccc(C(F)(F)F)c2)c(C)c(C(=O)N2CCC(N[C@H]3CCOC[C@H]3OC)CC2)n1 [Example 33j]
5 nM | COc1nc(Nc2cccc(C(F)(F)F)c2)c(C)c(C(=O)N2CCC(NC3CCOCC3F)CC2)n1 (centres unmarked) [Example 33k]
6 nM | Cc1c(Nc2ccc(Cl)c(Cl)c2)ncnc1C(=O)N1CCC(NC2CCOCC2)CC1 [Example 33l]
0.7 nM | COc1nc(Nc2ccc(Cl)c(Cl)c2)c(C)c(C(=O)N2CCC(NC3CCOCC3)CC2)n1 [Example 33m]
1 nM | Cc1c(Nc2ccc(Cl)c(Cl)c2)nc(C(F)(F)F)nc1C(=O)N1CCC(NC2CCOCC2)CC1 [Example 33n]
0.2 nM | CO[C@@H]1COCC[C@@H]1NC1CCN(C(=O)c2nc(C3CC3)nc(Nc3ccc(Cl)c(Cl)c3)c2C)CC1 [Example 33o]
0.3 nM | CO[C@H]1COCC[C@H]1NC1CCN(C(=O)c2nc(C3CC3)nc(Nc3ccc(Cl)c(Cl)c3)c2C)CC1 [Example 33p]
0.8 nM | Cc1c(Nc2ccc(Cl)c(Cl)c2)nc(C2CC2)nc1C(=O)N1CCC(N[C@H]2CCOC[C@H]2F)CC1 [Example 33q]
0.9 nM | Cc1c(Nc2ccc(Cl)c(Cl)c2)nc(C2CC2)nc1C(=O)N1CCC(N[C@@H]2CCOC[C@@H]2F)CC1 [Example 33r]
1 nM | Cc1c(Nc2cccc(C(F)(F)F)c2)nc(C2CC2)nc1C(=O)N1CCC(N[C@@H]2CCOC[C@@H]2F)CC1 [Example 33s]
